Data as given in patent publication US20020004519A1, “METHOD FOR REDUCING CHLORIDE SECETION BY INTESTINAL EPITHLIAL CELLS IN SITU” (priority 1998, published 2002).

Key:
T84 cells = assay: Electrogenic Cl- secretion (short circuit current, Isc) in confluent T84 monolayers; assay type: cell-based, human; details: for Inhibition of cAMP and Ca++ elicited Cl- secretion: comparison of compounds tested
[1] = tested on: cAMP- and Ca++-sensitive basolateral K+ channels of T84 cells; assay: Basolateral K+ conductance in T84 monolayers permeabilized apically with amphotericin B; assay type: cell-based, human; details: for Time course of K+ transport after treatment with forskolin and carbachol: forskolin 10 μM (cAMP agonist), carbachol 100 μM (Ca++ agonist)
Description: Selective mebrane Permeabilization and Measurement of Potassium Conductance of the Basolateral Membrane. The basolateral potassium conductance was measured using the technique developed by Dawson and co-workers. A potassium gradient (mucosal to serosal) was first established across the monolayer using asymmetric mucosal and serosal buffers containing K^+ as the sole permeant ion. The addition of amphotericin B (20 μM) to the mucosal reservoir forms conductive pores in the apical membrane, and thus removes all resistance to transepithelial potassium movement across this membrane. Thus, under the conditions of the experiment, in which the monolayer is short circuited (i.e., voltage-clamped at zero potential) and the transepithehal potassium gradient is constant, the amphotericin-dependent Isc becomes a measure of the rate of the transepithelial potassium flux across basolateral membranes. Changes in short circuit current (Isc), then represent changes in basolateral K^+ conductances (gK). Isc and K^+ conductances were measured using calomel electrodes, 3M KCI-agar bridges, and a voltage clamp (University of Iowa, Iowa City). To generate a voltage-current channel relationships, currents were elicited by 1 sec test potentials from −80 to +80 in 10 mV increments in the asymmetrical high K^+ gluconate solution. Calculation of basolateral membrane K^+ permeability: Membrane permeabilities were calculated according to the formula:
^pK=(cm/s)=^JK(mM/cm^2·s)/Δ[K^+](mM/cm^3)
where Δ [K^+] is equal to the difference in K^+ concentration (135 mM) between the asymmetric apical and basolateral bathing solutions. Maximal Isc values were converted into K^+ fluxes by dividing by the Faraday constant F (96,500 coulombs/mol) as previously described (Huflejt et al., J. Clin. Invest. 93: 1900-1910 (1994)).
Basolateral K+ transport was examined in T84 monolayers permeabilized apically by pretreatment with amphotericin B. Apical and basolateral buffers contained K+ as the sole permeant ion. All studies were performed with a 135 mM basolaterally directed K+ gradient. This method has been utilized previously to examine both Cl− and K+ transport in T84 cells and HT29-Cl0.16E cells. Briefly, ion conductances in the luminal or basolateral membranes of confluent T84 cell monolayers can be assessed separately by selectively permeabilizing the apical or basolateral membrane using the ionophore amphotericin B. This artificially removes all electrical resistance to ion transport across the plasma membrane containing pores formed by amphotericin B. As a result, the intact contralateral plasma membrane becomes rate limiting for transepithelial ion transport. Agonist-dependent changes in ion conductances can be assessed directly either as transepithelial short circuit current (Isc) in the presence of established ion gradients, or as transepithelial conductance (G) in the presence of established transepithelial potentials.

[2] = tested on: basolateral K+ channels of T84 cells; assay: 86Rb efflux from T84 monolayers as indicator of basolateral K+ channel activity; assay type: cell-based, human
Description: J. Physiol (Cell Physiol. 28):[…]-[…] (1990). […] One ml samples were obtained and replaced from the basolateral reservoir. […] Finally, the cell monolayer was rinsed, cut with its support from the polystyrene ring, and the residual cell-associated radioactivity was determined. Monolayers were maintained at 37° C. in room air throughout the study. ^86Rb was counted by scintillation counting and normalized to percent total uptake as previously described ([…], et al, Am. J. Physiol. (Cell Physiol. 28):[…]-[…] (1990).

[3] = tested on: apical membrane Cl- channels of T84 cells; assay: 125I efflux from T84 monolayers as indicator of apical Cl- channel activity; assay type: cell-based, human
Description: J. Physiol. (Cell Physiol. 28):[…]-[…] (1990). […] After washing twice in fresh HBSS, 0.5 ml samples were obtained every two min from the apical reservoir and replaced with fresh HBSS. […] Finally, the cell monolayer was rinsed, cut with its support from the polystyrene ring, and the residual cell-associated radioactivity was determined. Monolayers were maintained at 37° C. in room air throughout the study. ^125I was counted by gamma counting and normalized to percent total uptake as previously described ([…], et al, Am. J. Physiol. (Cell Physiol 28):[…]-[…] (1990).

[4] = tested on: basolateral NaK2Cl cotransporters of T84 cells; assay: Bumetanide-sensitive 86Rb uptake in T84 monolayers; assay type: cell-based, human
Description: Confluent monolayers on 5 cm^2 Transwell inserts were incubated for 30 minutes in HBSS at 37° C. […] Monolayers were cut from their inserts, placed into scintillation vials, and counted using standard methods.

[5] = tested on: apical membrane Cl- channels of T84 cells; assay: Apical Cl- conductance in T84 monolayers permeabilized basolaterally with amphotericin B; assay type: cell-based, human; details: forskolin 10 μM; symmetrical Cl- 142 mM
rabbit colonic mucosa = assay: Ussing chamber studies using rabbit colonic mucosa; details: 30 μM; forskolin 10 μM
Description: 4 male, New Zealand rabbits (2.5 kg) were anesthetized by an intravenous injection of pentobarbital (0.5 ml/kg). A 15 cm length of distal colon was removed and opened longitudinally. […] The volume of fluid on each side of the mucosa was 7 ml. Potential difference and Isc were monitored continuously and registered every 10 minutes.

[6] = tested on: cholera toxin-induced intestinal fluid secretion; assay type: in vivo, Balb/C mice
[7] = 33 μM during final 30 min of preincubation

OC(c1ccccc1)(c1ccccc1)c1ccccc1Cl [2-chlorophenyl-bis-phenyl methanol]
Inhibition of cAMP and Ca++ elicited Cl- secretion (T84 cells): effective at inhibiting chloride secretion | Time course of K+ transport after treatment with forskolin and carbachol [1]: Nearly identical results

[Ba+2].[Cl-].[Cl-] [BaCl2]
Cl- secretory response (Isc as percentage of control) to the Ca++-dependent agonist carbachol (T84 cells): no apparent affect | Cl- secretory response (Isc as percentage of control) to the cAMP mediated agonist VIP (T84 cells): strongly inhibited | Effect on K+ transport induced by subsequent addition of carbachol ([1]; carbachol 100 μM, same monolayers, BaCl2 3 mM): no detectable effect | Inhibition of the cAMP-sensitive IK elicited by forskolin ([1]; forskolin 10 μM, BaCl2 3 mM in basolateral reservoirs): greater than 70%

Clc1ccccc1C(c1ccccc1)(c1ccccc1)n1ccnc1 [clotrimazole]
Cl- secretory response (Isc as percentage of control) to the Ca++-dependent agonist carbachol (T84 cells): inhibited | Cl- secretory response (Isc as percentage of control) to the cAMP mediated agonist VIP (T84 cells): inhibited | Secretory response to agonists of sequential steps in the cAMP signalling cascade (T84 cells; 33 μM preincubation, 5 μM VIP, 10 μM forskolin or 3 mM 8Br-cAMP): inhibited | Cl- secretory response to Ca++-dependent agonists (T84 cells; 33 μM pretreatment, carbachol 100 μM, thapsigargin 5 μM or ionomycin 10 μM): inhibited strongly | IC50 (T84 cells; Homo sapiens, T84, read-out: IC50 for inhibiting the secretory response to E. Coli heat-stabile toxin): 15 µM | Reversibility of inhibition of Cl- secretion (T84 cells; after 60 min recovery in the presence of 0.01 mg/ml bovine serum albumin, n=4): 96±2% | Apparent potency of inhibition at a fixed time point by side of application (T84 cells; basolateral versus apical application): greater when applied basolaterally than apically | Inhibition of cAMP and Ca++ elicited Cl- secretion (T84 cells): most potent inhibitor tested | Potentiation of the Cl- secretory responses to either agonist at low doses (T84 cells; low doses (=10^-7 or less), VIP or carbachol): 5-10% | 86Rb loading of the cells [2, 7]: did not alter | Reduction of the rate constant for VIP-stimulated 86Rb efflux ([2]; 33 μM, VIP 5 μM): 87% | Baseline and Ca++ stimulated 86RB efflux ([2]; T84 cells in the presence of VIP or thapsigargin, compared to cells not treated, FIG. 2): significantly inhibited | Rate constant for VIP-stimulated 86Rb efflux ([2]; monolayers treated with clotrimazole 33 μM, VIP 5 μM, n=2 in triplicate, untreated 0.0465): 0.0062 % uptake/minute | Rate constant for thapsigargin-stimulated 86Rb efflux ([2]; monolayers treated with clotrimazole 33 μM, thapsigargin 5 μM, n=2, untreated 0.048): 0.011 % uptake/minute | 125I loading of the cells [3, 7]: did not alter | Time course of 125I efflux from monolayers treated with VIP ([3]; 33 μM pretreatment, VIP): little or no effect | Rate constant for 125I efflux ([3]; monolayers treated with clotrimazole (33 μM), VIP, n=2 in duplicate, untreated 0.0645): 0.0637 % uptake/minute | Reduction of the total amount of 86Rb uptake ([4]; 33 μM for 30 min, VIP, mean±SEM, n=6): 53.6±5.8% | Effect on the fractional component of 86Rb uptake that was bumetanide-sensitive ([4]; 33 μM for 30 min, bumetanide 10 μM): no effect | Bumetanide-sensitive fraction of 86Rb uptake ([4]; 0.5 h, 33 µM): 88+3.2 % total uptake | Time course of K+ transport after treatment with forskolin and carbachol [1]: significantly inhibited | Forskolin- or thapsigargin-stimulated Cl- conductances [5]: no detectable effect | Time course of forskolin induced Isc (rabbit colonic mucosa): inhibited strongly | Reduction of intestinal fluid secretion induced by cholera toxin ([6]; 5 hours): 86% | Intestinal secretion in the absence of cholera toxin ([6]; mouse, in vivo): no effect

Clc1ccc(COC(Cn2ccnc2)c2ccc(Cl)cc2Cl)cc1 (centres unmarked) [econazole]
Inhibition of cAMP and Ca++ elicited Cl- secretion (T84 cells): effective at inhibiting chloride secretion

CC(=O)N1CCN(c2ccc(OCC3COC(Cn4ccnc4)(c4ccc(Cl)cc4Cl)O3)cc2)CC1 (centres unmarked) [ketoconazole]
Inhibition of cAMP and Ca++ elicited Cl- secretion (T84 cells): effective at inhibiting chloride secretion

Clc1ccc(COC(Cn2ccnc2)c2ccc(Cl)cc2Cl)c(Cl)c1 (centres unmarked) [miconazole]
Inhibition of cAMP and Ca++ elicited Cl- secretion (T84 cells): effective at inhibiting chloride secretion

charybdotoxin
Cl- secretory response (Isc as percentage of control) to the Ca++-dependent agonist carbachol (T84 cells): strongly inhibited | Cl- secretory response (Isc as percentage of control) to the cAMP mediated agonist VIP (T84 cells): minimal affects | Inhibition of the carbachol-induced Ca++ IK ([1]; carbachol first, pretreatment with charybdotoxin 100 nM): 50% | Effect on K+ transport induced by subsequent addition of forskolin ([1]; charybdotoxin 100 nM): no detectable effect
